We go through 20 compounds from patent US20190367516A1 (Bayer Pharma Aktiengesellschaft, priority 2015, published 2019).

Where two headings read alike, the source gives them in different places.

This test deals with T1, human M2 receptor (Homo sapiens, UniProt P08172).
T1 sequence (P08172 1-466): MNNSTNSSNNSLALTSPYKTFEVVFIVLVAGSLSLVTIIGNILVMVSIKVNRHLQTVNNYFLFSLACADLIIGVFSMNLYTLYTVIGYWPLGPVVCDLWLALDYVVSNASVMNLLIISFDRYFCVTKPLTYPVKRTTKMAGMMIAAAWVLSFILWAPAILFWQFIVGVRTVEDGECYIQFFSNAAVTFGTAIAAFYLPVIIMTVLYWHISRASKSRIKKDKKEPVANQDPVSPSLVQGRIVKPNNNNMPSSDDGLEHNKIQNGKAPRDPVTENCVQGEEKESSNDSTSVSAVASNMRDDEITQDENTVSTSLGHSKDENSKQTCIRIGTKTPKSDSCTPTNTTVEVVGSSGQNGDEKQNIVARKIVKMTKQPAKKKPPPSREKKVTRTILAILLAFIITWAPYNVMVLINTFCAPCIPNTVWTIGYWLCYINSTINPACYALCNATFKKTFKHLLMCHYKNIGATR
The following applies: for EC50: Receptor activity EC50, allosteric potency at EC20 acetylcholine, in some cases mean of two or more determinations; for Efficiency: boosting of the acetylcholine effect at EC20 acetylcholine concentration.

The mark [1] stands for this setting: read-out: Efficiency, boosting of the acetylcholine effect at EC20 acetylcholine concentration, M2-GIRK1/4 reporter cells.

As for `CCC(NC(=O)c1cn(-c2c(F)cc(F)cc2F)c2nc(N3C[C@@H](O)CC3=O)ccc2c1=O)C(F)(F)C(F)(F)F` (mixture of isomers) [Example 519, 7-[(4S)-4-Hydroxy-2-oxopyrrolidin-1-yl]-4-oxo-N-[1,1,1,2,2-pentafluoropentan-3-yl]-1-(2,4,6-trifluorophenyl)-1,4-dihydro-1,8-naphthyridine-3-carboxamide], the response (M2-GIRK1/4 reporter cells) was half-maximal at 3 nM (EC50). The Emax under setting [1] stood at 96.7%.
For the compound `CCC(NC(=O)c1cn(-c2c(F)cc(F)cc2F)c2nc(N3C[C@@H](O)[C@H](O)C3)ccc2c1=O)C(F)(F)C(F)(F)F` (mixture of isomers) [Example 522, 7-[(3R,4R)-3,4-Dihydroxypyrrolidin-1-yl]-4-oxo-N-[1,1,1,2,2-pentauoropentan-3-yl]-1-(2,4,6-trifluorophenyl)-1,4-dihydro-1,8-naphthyridine-3-carboxamide], the Emax (read-out: Efficiency) turned out to be 92.8%.
For `CC(C)C(NC(=O)c1cn(-c2c(F)cc(F)cc2F)c2nc(N3C[C@@H](O)CC3=O)ccc2c1=O)C(F)(F)F` (mixture of isomers) [Example 526, 7-[(4S)-4-Hydroxy-2-oxopyrrolidin-1-yl]-4-oxo-N-[1,1,1-trifluoro-3-methylbutan-2-yl]-1-(2,4,6-trifluorophenyl)-1,4-dihydro-1,8-naphthyridine-3-carboxamide], for the setting “M2-GIRK1/4 reporter cells”, the EC50 came out at 9 nM. In addition, under setting [1], the Emax came to 100%.
Compound `CC(NC(=O)c1cn(-c2c(F)cc(F)cc2F)c2nc(N3C[C@@H](O)CC3=O)ccc2c1=O)C(F)(F)C(F)(F)F` (mixture of isomers) [Example 529, 7-[(4S)-4-Hydroxy-2-oxopyrrolidin-1-yl]-4-oxo-N-[3,3,4,4,4-pentafluorobutan-2-yl]-1-(2,4,6-trifluorophenyl)-1,4-dihydro-1,8-naphthyridine-3-carboxamide] showed an EC50 (M2-GIRK1/4 reporter cells) of 6 nM. Moreover, the Emax under setting [1] was 96%.
In turn, `O=C(NC(c1ccccc1Cl)C(F)(F)F)c1cn(-c2c(F)cc(F)cc2F)c2nc(N3C[C@@H](O)CC3=O)ccc2c1=O` (mixture of isomers) [Example 532, N-[1-(2-Chlorophenyl)-2,2,2-trifluoroethyl]-7-[(4S)-4-hydroxy-2-oxopyrrolidin-1-yl]-4-oxo-1-(2,4,6-trifluorophenyl)-1,4-dihydro-1,8-naphthyridine-3-carboxamide] registered a concentration for a half-maximal effect (EC50) (M2-GIRK1/4 reporter cells) of 18 nM. In addition, the Emax under setting [1] turned out to be 92%.
For `CC(C)C(NC(=O)c1cn(-c2c(F)cc(F)cc2F)c2nc(N3CCNC3=O)ccc2c1=O)C(F)(F)F` (racemic) [Example 536, 4-Oxo-7-(2-oxoimidazolidin-1-yl)-N-[1,1,1-trifluoro-3-methylbutan-2-yl]-1-(2,4,6-trifluorophenyl)-1,4-dihydro-1,8-naphthyridine-3-carboxamide] the same measures were 16 nM and 99.5%.
As to `CC(NC(=O)c1cn(-c2c(F)cc(F)cc2F)c2nc(N3CCNC3=O)ccc2c1=O)C(F)(F)C(F)(F)F` (racemic) [Example 540, 4-Oxo-7-(2-oxoimidazolidin-1-yl)-N-[3,3,4,4,4-pentafluorobutan-2-yl]-1-(2,4,6-trifluorophenyl)-1,4-dihydro-1,8-naphthyridine-3-carboxamide], it took 9 nM to reach a half-maximal effect (M2-GIRK1/4 reporter cells) (EC50). Further, the Emax under setting [1] was determined as 90%.
As for `CC(NC(=O)c1cn(-c2c(F)cc(F)cc2F)c2nc(N3C[C@@H](O)[C@H](O)C3)ccc2c1=O)C(F)(F)C(F)(F)F` (mixture of isomers) [Example 549, 7-[(3R,4R)-3,4-Dihydroxypyrrolidin-1-yl]-4-oxo-N-[3,3,4,4,4-pentafluorobutan-2-yl]-1-(2,4,6-trifluorophenyl)-1,4-dihydro-1,8-naphthyridine-3-carboxamide], the Emax (read-out: Efficiency) was found to be 100%.
Consider `CC(C)C(NC(=O)c1cn(-c2c(F)cc(F)cc2F)c2nc(N3C[C@@H](O)[C@H](O)C3)ccc2c1=O)C(F)(F)F` (mixture of isomers) [Example 552, 7-[(3R,4R)-3,4-Dihydroxypyrrolidin-1-yl]-4-oxo-N-[1,1,1-trifluoro-3-methylbutan-2-yl]-1-(2,4,6-trifluorophenyl)-1,4-dihydro-1,8-naphthyridine-3-carboxamide], for which the midpoint of the response (M2-GIRK1/4 reporter cells), the EC50, lay at 14 nM. The Emax under setting [1] was determined as 96%.
The compound `CCC(NC(=O)c1cn(-c2ccc(F)cc2F)c2nc(N3C[C@@H](O)CC3=O)ccc2c1=O)C(F)(F)C(F)(F)F` (mixture of isomers) [Example 556, 1-(2,4-Difluorophenyl)-7-[(4S)-4-hydroxy-2-oxopyrrolidin-1-yl]-4-oxo-N-[1,1,1,2,2-pentafluoropentan-3-yl]-1,4-dihydro-1,8-naphthyridine-3-carboxamide] yielded an EC50 (M2-GIRK1/4 reporter cells) of 10 nM. For the same compound, the Emax under setting [1] came out at 100%.
For `O=C(NC(c1ccccc1Cl)C(F)(F)F)c1cn(-c2c(F)cc(F)cc2F)c2nc(N3C[C@@H](O)[C@H](O)C3)ccc2c1=O` (mixture of isomers) [Example 560, N-[1-(2-Chlorophenyl)-2,2,2-trifluoroethyl]-7-[(3R,4R)-3,4-dihydroxypyrrolidin-1-yl]-4-oxo-1-(2,4,6-trifluorophenyl)-1,4-dihydro-1,8-naphthyridine-3-carboxamide], the midpoint of the response (M2-GIRK1/4 reporter cells), the EC50, lay at 17 nM. Besides, the Emax under setting [1] is 100%.
For `O=C(NC(c1ccccc1Cl)C(F)(F)F)c1cn(-c2c(F)cc(F)cc2F)c2nc(N3CCNC3=O)ccc2c1=O` (racemic) [Example 563, N-[1-(2-Chlorophenyl)-2,2,2-trifluoroethyl]-4-oxo-7-(2-oxoimidazolidin-1-yl)-1-(2,4,6-trifluorophenyl)-1,4-dihydro-1,8-naphthyridine-3-carboxamide], in that order: 20 nM and 100%.
`O=C(NC(c1ccccc1Cl)C(F)(F)F)c1cn(-c2c(F)cc(F)cc2F)c2nc(N3CCNC3=O)ccc2c1=O` (racemic) [Example 565, N-[1-(2-Chlorophenyl)-2,2,2-trifluoroethyl]-4-oxo-7-(2-oxoimidazolidin-1-yl)-1-(2,4,6-trifluorophenyl)-1,4-dihydro-1,8-naphthyridine-3-carboxamide] returned an Efficiency (M2-GIRK1/4 reporter cells) of 99.5%.
As for `CC(C)(CC(F)(F)F)NC(=O)c1cn(-c2c(F)cc(F)cc2F)c2nc(N3CC(O)C4(CC4)C3)ccc2c1=O` (racemic) [Example 569, 7-[7-Hydroxy-5-azaspiro[2.4]hept-5-yl]-4-oxo-N-(4,4,4-trifluoro-2-methylbutan-2-yl)-1-(2,4,6-trifluorophenyl)-1,4-dihydro-1,8-naphthyridine-3-carboxamide], the midpoint of the response (M2-GIRK1/4 reporter cells), the EC50, lay at 49 nM. For the same compound, the Emax under setting [1] stood at 100%.
For `CCC(COC(F)(F)F)NC(=O)c1cn(-c2c(F)cc(F)cc2F)c2nc(N3C[C@@H](O)[C@H](O)C3)ccc2c1=O` (mixture of isomers) [Example 576, 7-[(3R,4R)-3,4-Dihydroxypyrrolidin-1-yl]-4-oxo-N-[1-(trifluoromethoxy)butan-2-yl]-1-(2,4,6-trifluorophenyl)-1,4-dihydro-1,8-naphthyridine-3-carboxamide] the same measures were 13 nM and 99.5%.
For `COC1CN(c2ccc3c(=O)c(C(=O)N[C@@H](C4CC4)C(F)(F)F)cn(-c4c(F)cc(F)cc4F)c3n2)CC1O` (mixture of isomers) [Example 582, N-[(1 S)-1-Cyclopropyl-2,2,2-trifluoroethyl]-7-[trans-3-hydroxy-4-methoxypyrrolidin-1-yl]-4-oxo-1-(2,4,6-trifluorophenyl)-1,4-dihydro-1,8-naphthyridine-3-carboxamide], in that order: 14 nM and 100%.
For `O=C(NC(CC(F)(F)F)C(F)(F)F)c1cn(-c2c(F)cc(F)cc2F)c2nc(N3CCNC3=O)ccc2c1=O` (racemic) [Example 586, N-[1,1,1,4,4,4-Hexafluorobutan-2-yl]-4-oxo-7-(2-oxoimidazolidin-1-yl)-1-(2,4,6-trifluorophenyl)-1,4-dihydro-1,8-naphthyridine-3-carboxamide], in that order: 15 nM and 100%.
For the compound `O=C(NC(CC(F)(F)F)C(F)(F)F)c1cn(-c2c(F)cc(F)cc2F)c2nc(N3CCNC3=O)ccc2c1=O` (racemic) [Example 587, N-[1,1,1,4,4,4-Hexafluorobutan-2-yl]-4-oxo-7-(2-oxoimidazolidin-1-yl)-1-(2,4,6-trifluorophenyl)-1,4-dihydro-1,8-naphthyridine-3-carboxamide], where the note is “M2-GIRK1/4 reporter cells”, the EC50 amounted to 14 nM and the Efficiency was 93.5%.
As for `O=C(NC(CC(F)(F)F)C(F)(F)F)c1cn(-c2c(F)cc(F)cc2F)c2nc(N3CCNC3=O)ccc2c1=O` (racemic) [Example 588, N-[1,1,1,4,4,4-Hexafluorobutan-2-yl]-4-oxo-7-(2-oxoimidazolidin-1-yl)-1-(2,4,6-trifluorophenyl)-1,4-dihydro-1,8-naphthyridine-3-carboxamide], for the setting “M2-GIRK1/4 reporter cells”, the concentration giving a half-maximal response (EC50) amounted to 9 nM and the Efficiency amounted to 100.0%.
For `O=C(Nc1c(Cl)cccc1Cl)c1cn(-c2ccc(F)cc2F)c2nc(N3CC4CC4(O)C3)ccc2c1=O` (racemic) [Example 597, N-(2,6-Dichlorophenyl)-1-(2,4-difluorophenyl)-7-[1-hydroxy-3-azabicyclo[3.1.0]hex-3-yl]-4-oxo-1,4-dihydro-1,8-naphthyridine-3-carboxamide], for the setting “M2-GIRK1/4 reporter cells”, the concentration giving a half-maximal response (EC50) is 21 nM. Also, the Emax under setting [1] is 95.5%.
